The subject of series [1] is Meth-A fibrosarcoma cells (Meth-A tumor cells). Put plainly: Antitumor activity, subcutaneous administration, Meth-A tumor-bearing mice (Examples 1 and 4). It counts as in vivo, female BALB/c mice. The note with it: Table 4, day 21. The protocol: (§1) Meth-A fibrosarcoma cells (Meth-A tumor cells) (1×10^6 cells) were transplanted into each female BALB/c mice (weighing about 20 g) subcutaneously in the flank using a syringe. Seven days after tumor transplantation, mice in which tumor was larger than a certain defined size were chosen and grouped and administration of the test agent was started. The agent was administered subcutaneously in the opposite flank relative to the tumor transplantation site once daily for 10 consecutive days. Each ingredient of the test agent was dissolved in physiological saline (solvent) supplemented in a form of a single preparation with 5% of normal mouse serum in a concentration such that the dose of the solution amounted to 0.1 ml/20 g of mouse body weight. The antitumor effect was evaluated by measuring the tumor weight in each mouse 21 days after tumor transplantation, determining the average tumor weight for each group and calculating the tumor weight ratio (T/C %) between the dosed group (T; 5 animals per group) and the untreated control group (C; 5 to 10 animals per group). The daily dose of each ingredients was expressed in terms of the ingredient weight (mcg) per mouse.

A short description of series [2]: Body weight gain of tumor-bearing mice, subcutaneous administration (Examples 1 and 4). The note with it: Table 4; TMD-5 200 mcg/mouse/day alone s.c. In kind it is in vivo, female BALB/c mice. How it is done: as §1
Setting [3] is: TMD-76 200 mcg/mouse/day alone s.c. x10 days.
The mark [4] stands for this setting: TMD-5 200 mcg/mouse/day alone s.c. x10 days.

In the case of `COC(=O)CC[C@@H](NC(=O)[C@@H](NC(=O)[C@@H](C)O[C@H]1[C@H](O)[C@@H](COC(=O)CCC2=C(C)C(=O)C(OC)=C(OC)C2=O)OC(O)[C@@H]1NC(C)=O)C(C)C)C(N)=O` (stereo partly drawn) [TMD-76, 6-0-[3-(2,3-dimethoxy-5-methyl-1,4-benzoquinon-6-yl)propionyl]-N-acetylmuramyl-L-valyl-D-isoglutamine methyl ester], in series [1] (setting [3]), the “Tumor weight (mg) Mean ± SD” value is listed as 5,550 ± 1,776 mg and the “Tumor weight ratio (T/C %)” value is 97%.
Take `CC(=O)N[C@H]1C(O)O[C@H](CO)[C@@H](O)[C@@H]1O[C@H](C)C(=O)NC(C)(C)C(=O)N[C@H](CCC(=O)O)C(N)=O` (stereo partly drawn) [TMD-5, N-acetylmuramylaminoisobutyryl-D-isoglutamine]: in series [1] (setting [4]), the “Tumor weight (mg) Mean ± SD” value is reported as 5,662 ± 1,097 mg and the “Tumor weight ratio (T/C %)” value came out at 99%. The “Body weight gain (g) (day 7 to day 21)” value in series [2] was 3.0 g.

These data come from US4780313A (Takeda Chemical Industries, Ltd., priority 1985, dated 1988).
